According to ChEMBL document CHEMBL5724914, “Linking interpersonal differences in gut microbiota composition and drug biotransformation activity” (2024):

test: (§1) The drug is tested on Z-019 corresponding to rat gut metagenome with ENA study accession number: PRJEB37062 and ENA sample accession number: ERS12561818 for biotransformation under anaerobic condition. The drug concentrations were measured over 9 timepoints collected between 0 and 24 hours of incubation by liquid-chromatography-coupled mass spectrometry (LC–MS); details: 2 µM
Also: call rule not given here.

Row | SMILES | Bacterial Biotransformation
1 | COCCc1ccc(OCC(O)CNC(C)C)cc1.COCCc1ccc(OCC(O)CNC(C)C)cc1.O=C(O)C(O)C(O)C(=O)O (stereo not given) [METOPROLOL TARTRATE] | Compound NOT metabolized
2 | COc1ccc2c(c1OC)C(=O)O[C@@H]2[C@H]1c2c(cc3c(c2OC)OCO3)CCN1C [NOSCAPINE] | Compound NOT metabolized

test: as §1, with “on Z-017” for “on Z-019”, “to mouse” for “to rat”, “number: ERS12561816” for “number: ERS12561818”; details: 2 µM

Row | SMILES | Bacterial Biotransformation
3 | COCCc1ccc(OCC(O)CNC(C)C)cc1.COCCc1ccc(OCC(O)CNC(C)C)cc1.O=C(O)C(O)C(O)C(=O)O (stereo not given) [METOPROLOL TARTRATE] | Compound NOT metabolized
4 | COc1ccc2c(c1OC)C(=O)O[C@@H]2[C@H]1c2c(cc3c(c2OC)OCO3)CCN1C [NOSCAPINE] | Compound NOT metabolized

test: as §1, with “on Z-016” for “on Z-019”, “to mouse” for “to rat”, “number: ERS12561815” for “number: ERS12561818”; details: 2 µM

Row | SMILES | Bacterial Biotransformation
5 | COCCc1ccc(OCC(O)CNC(C)C)cc1.COCCc1ccc(OCC(O)CNC(C)C)cc1.O=C(O)C(O)C(O)C(=O)O (stereo not given) [METOPROLOL TARTRATE] | Compound NOT metabolized
6 | COc1ccc2c(c1OC)C(=O)O[C@@H]2[C@H]1c2c(cc3c(c2OC)OCO3)CCN1C [NOSCAPINE] | Compound metabolized

test: as §1, with “Z-014” for “Z-019”, “ERS12561814” for “ERS12561818”; details: 2 µM

Row | SMILES | Bacterial Biotransformation
7 | COCCc1ccc(OCC(O)CNC(C)C)cc1.COCCc1ccc(OCC(O)CNC(C)C)cc1.O=C(O)C(O)C(O)C(=O)O (stereo not given) [METOPROLOL TARTRATE] | Compound NOT metabolized
8 | COc1ccc2c(c1OC)C(=O)O[C@@H]2[C@H]1c2c(cc3c(c2OC)OCO3)CCN1C [NOSCAPINE] | Compound metabolized

test: as §1, with “on Z-013” for “on Z-019”, “to rabbit” for “to rat”, “number: ERS12561813” for “number: ERS12561818”; details: 2 µM

Row | SMILES | Bacterial Biotransformation
9 | COCCc1ccc(OCC(O)CNC(C)C)cc1.COCCc1ccc(OCC(O)CNC(C)C)cc1.O=C(O)C(O)C(O)C(=O)O (stereo not given) [METOPROLOL TARTRATE] | Compound NOT metabolized
10 | COc1ccc2c(c1OC)C(=O)O[C@@H]2[C@H]1c2c(cc3c(c2OC)OCO3)CCN1C [NOSCAPINE] | Compound NOT metabolized

test: as §1, with “Z-008” for “Z-019”, “to” for “to rat gut”, “ERS12561808” for “ERS12561818”; details: 2 µM

Row | SMILES | Bacterial Biotransformation
11 | COCCc1ccc(OCC(O)CNC(C)C)cc1.COCCc1ccc(OCC(O)CNC(C)C)cc1.O=C(O)C(O)C(O)C(=O)O (stereo not given) [METOPROLOL TARTRATE] | Compound NOT metabolized
12 | COc1ccc2c(c1OC)C(=O)O[C@@H]2[C@H]1c2c(cc3c(c2OC)OCO3)CCN1C [NOSCAPINE] | Compound NOT metabolized

test: as §1, with “on WLS-310” for “on Z-019”, “to human” for “to rat”, “number: ERS12561785” for “number: ERS12561818”; details: 2 µM

Row | SMILES | Bacterial Biotransformation
13 | COCCc1ccc(OCC(O)CNC(C)C)cc1.COCCc1ccc(OCC(O)CNC(C)C)cc1.O=C(O)C(O)C(O)C(=O)O (stereo not given) [METOPROLOL TARTRATE] | Compound metabolized
14 | COc1ccc2c(c1OC)C(=O)O[C@@H]2[C@H]1c2c(cc3c(c2OC)OCO3)CCN1C [NOSCAPINE] | Compound metabolized

test: as §1, with “on WLS-220” for “on Z-019”, “to human” for “to rat”, “number: ERS12561769” for “number: ERS12561818”; details: 2 µM

Row | SMILES | Bacterial Biotransformation
15 | COCCc1ccc(OCC(O)CNC(C)C)cc1.COCCc1ccc(OCC(O)CNC(C)C)cc1.O=C(O)C(O)C(O)C(=O)O (stereo not given) [METOPROLOL TARTRATE] | Compound NOT metabolized
16 | COc1ccc2c(c1OC)C(=O)O[C@@H]2[C@H]1c2c(cc3c(c2OC)OCO3)CCN1C [NOSCAPINE] | Compound metabolized

test: as §1, with “on WLS-086” for “on Z-019”, “to human” for “to rat”, “number: ERS12561752” for “number: ERS12561818”; details: 2 µM

Row | SMILES | Bacterial Biotransformation
17 | COCCc1ccc(OCC(O)CNC(C)C)cc1.COCCc1ccc(OCC(O)CNC(C)C)cc1.O=C(O)C(O)C(O)C(=O)O (stereo not given) [METOPROLOL TARTRATE] | Compound metabolized
18 | COc1ccc2c(c1OC)C(=O)O[C@@H]2[C@H]1c2c(cc3c(c2OC)OCO3)CCN1C [NOSCAPINE] | Compound metabolized

test: as §1, with “on WLS-073” for “on Z-019”, “to human” for “to rat”, “number: ERS12561749” for “number: ERS12561818”; details: 2 µM

Row | SMILES | Bacterial Biotransformation
19 | COCCc1ccc(OCC(O)CNC(C)C)cc1.COCCc1ccc(OCC(O)CNC(C)C)cc1.O=C(O)C(O)C(O)C(=O)O (stereo not given) [METOPROLOL TARTRATE] | Compound NOT metabolized
20 | COc1ccc2c(c1OC)C(=O)O[C@@H]2[C@H]1c2c(cc3c(c2OC)OCO3)CCN1C [NOSCAPINE] | Compound metabolized

test: as §1, with “on WLS-038” for “on Z-019”, “to human” for “to rat”, “number: ERS12561745” for “number: ERS12561818”; details: 2 µM

Row | SMILES | Bacterial Biotransformation
21 | COCCc1ccc(OCC(O)CNC(C)C)cc1.COCCc1ccc(OCC(O)CNC(C)C)cc1.O=C(O)C(O)C(O)C(=O)O (stereo not given) [METOPROLOL TARTRATE] | Compound NOT metabolized
22 | COc1ccc2c(c1OC)C(=O)O[C@@H]2[C@H]1c2c(cc3c(c2OC)OCO3)CCN1C [NOSCAPINE] | Compound NOT metabolized

test: as §1, with “on WLS-007” for “on Z-019”, “to human” for “to rat”, “number: ERS12561742” for “number: ERS12561818”; details: 2 µM

Row | SMILES | Bacterial Biotransformation
23 | COCCc1ccc(OCC(O)CNC(C)C)cc1.COCCc1ccc(OCC(O)CNC(C)C)cc1.O=C(O)C(O)C(O)C(=O)O (stereo not given) [METOPROLOL TARTRATE] | Compound NOT metabolized
24 | COc1ccc2c(c1OC)C(=O)O[C@@H]2[C@H]1c2c(cc3c(c2OC)OCO3)CCN1C [NOSCAPINE] | Compound NOT metabolized

details: human gut metagenome, 24 h, 2 µM

Row | SMILES | Bacterial Biotransformation
25 | COCCc1ccc(OCC(O)CNC(C)C)cc1.COCCc1ccc(OCC(O)CNC(C)C)cc1.O=C(O)C(O)C(O)C(=O)O (stereo not given) [METOPROLOL TARTRATE] | Compound NOT metabolized
26 | COc1ccc2c(c1OC)C(=O)O[C@@H]2[C@H]1c2c(cc3c(c2OC)OCO3)CCN1C [NOSCAPINE] | Compound NOT metabolized

details: human gut metagenome, 24 h, 2 µM; remark: another data set of the same source

Row | SMILES | Bacterial Biotransformation
27 | COCCc1ccc(OCC(O)CNC(C)C)cc1.COCCc1ccc(OCC(O)CNC(C)C)cc1.O=C(O)C(O)C(O)C(=O)O (stereo not given) [METOPROLOL TARTRATE] | Compound NOT metabolized
28 | COc1ccc2c(c1OC)C(=O)O[C@@H]2[C@H]1c2c(cc3c(c2OC)OCO3)CCN1C [NOSCAPINE] | Compound NOT metabolized

details: human gut metagenome, 24 h, 2 µM; remark: another data set of the same source

Row | SMILES | Bacterial Biotransformation
29 | COCCc1ccc(OCC(O)CNC(C)C)cc1.COCCc1ccc(OCC(O)CNC(C)C)cc1.O=C(O)C(O)C(O)C(=O)O (stereo not given) [METOPROLOL TARTRATE] | Compound metabolized
30 | COc1ccc2c(c1OC)C(=O)O[C@@H]2[C@H]1c2c(cc3c(c2OC)OCO3)CCN1C [NOSCAPINE] | Compound NOT metabolized

details: human gut metagenome, 24 h, 2 µM; remark: another data set of the same source

Row | SMILES | Bacterial Biotransformation
31 | COCCc1ccc(OCC(O)CNC(C)C)cc1.COCCc1ccc(OCC(O)CNC(C)C)cc1.O=C(O)C(O)C(O)C(=O)O (stereo not given) [METOPROLOL TARTRATE] | Compound NOT metabolized
32 | COc1ccc2c(c1OC)C(=O)O[C@@H]2[C@H]1c2c(cc3c(c2OC)OCO3)CCN1C [NOSCAPINE] | Compound NOT metabolized

details: human gut metagenome, 24 h, 2 µM; remark: another data set of the same source

Row | SMILES | Bacterial Biotransformation
33 | COCCc1ccc(OCC(O)CNC(C)C)cc1.COCCc1ccc(OCC(O)CNC(C)C)cc1.O=C(O)C(O)C(O)C(=O)O (stereo not given) [METOPROLOL TARTRATE] | Compound NOT metabolized
34 | COc1ccc2c(c1OC)C(=O)O[C@@H]2[C@H]1c2c(cc3c(c2OC)OCO3)CCN1C [NOSCAPINE] | Compound metabolized

details: human gut metagenome, 24 h, 2 µM; remark: another data set of the same source

Row | SMILES | Bacterial Biotransformation
35 | COCCc1ccc(OCC(O)CNC(C)C)cc1.COCCc1ccc(OCC(O)CNC(C)C)cc1.O=C(O)C(O)C(O)C(=O)O (stereo not given) [METOPROLOL TARTRATE] | Compound NOT metabolized
36 | COc1ccc2c(c1OC)C(=O)O[C@@H]2[C@H]1c2c(cc3c(c2OC)OCO3)CCN1C [NOSCAPINE] | Compound NOT metabolized

details: human gut metagenome, 24 h, 2 µM; remark: another data set of the same source

Row | SMILES | Bacterial Biotransformation
37 | COCCc1ccc(OCC(O)CNC(C)C)cc1.COCCc1ccc(OCC(O)CNC(C)C)cc1.O=C(O)C(O)C(O)C(=O)O (stereo not given) [METOPROLOL TARTRATE] | Compound metabolized
38 | COc1ccc2c(c1OC)C(=O)O[C@@H]2[C@H]1c2c(cc3c(c2OC)OCO3)CCN1C [NOSCAPINE] | Compound NOT metabolized

details: human gut metagenome, 24 h, 2 µM; remark: another data set of the same source

Row | SMILES | Bacterial Biotransformation
39 | COCCc1ccc(OCC(O)CNC(C)C)cc1.COCCc1ccc(OCC(O)CNC(C)C)cc1.O=C(O)C(O)C(O)C(=O)O (stereo not given) [METOPROLOL TARTRATE] | Compound NOT metabolized
40 | COc1ccc2c(c1OC)C(=O)O[C@@H]2[C@H]1c2c(cc3c(c2OC)OCO3)CCN1C [NOSCAPINE] | Compound metabolized
